Experiment [1] addresses T1, PTPN2 (i.e., TC-PTP) (Homo sapiens, UniProt P17706).
T1 sequence (P17706 1-415): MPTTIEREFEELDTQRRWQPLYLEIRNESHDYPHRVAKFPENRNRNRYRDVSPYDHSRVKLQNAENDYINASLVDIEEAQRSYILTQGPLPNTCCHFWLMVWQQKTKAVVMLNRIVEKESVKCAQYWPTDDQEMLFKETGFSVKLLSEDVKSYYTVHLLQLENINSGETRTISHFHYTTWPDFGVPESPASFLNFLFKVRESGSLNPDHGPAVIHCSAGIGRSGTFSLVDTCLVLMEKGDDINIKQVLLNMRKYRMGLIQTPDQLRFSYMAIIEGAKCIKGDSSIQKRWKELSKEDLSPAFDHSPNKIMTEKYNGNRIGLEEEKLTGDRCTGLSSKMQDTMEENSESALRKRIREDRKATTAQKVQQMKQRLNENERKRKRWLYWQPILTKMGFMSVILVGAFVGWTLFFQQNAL
The experiment can be described thus: Phosphatase activity assay (DiFMUP substrate), PTPN2. The note with it: compounds binned ≤1 uM or >1 uM. It counts as biochemical. Summed up:
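Using a Km-level DiFMUP substrate and 0.025 ng/ul PTPN2, phosphatase activity is tracked by DiFMU emission at 450 nm over about 15–30 minutes. Initial rates at ten inhibitor concentrations give IC50 by four-parameter fitting.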

Experiment [2] has as its target T2, PTPN1 (i.e., PTP1B) (Homo sapiens, UniProt P18031).
T2 sequence (P18031 1-435): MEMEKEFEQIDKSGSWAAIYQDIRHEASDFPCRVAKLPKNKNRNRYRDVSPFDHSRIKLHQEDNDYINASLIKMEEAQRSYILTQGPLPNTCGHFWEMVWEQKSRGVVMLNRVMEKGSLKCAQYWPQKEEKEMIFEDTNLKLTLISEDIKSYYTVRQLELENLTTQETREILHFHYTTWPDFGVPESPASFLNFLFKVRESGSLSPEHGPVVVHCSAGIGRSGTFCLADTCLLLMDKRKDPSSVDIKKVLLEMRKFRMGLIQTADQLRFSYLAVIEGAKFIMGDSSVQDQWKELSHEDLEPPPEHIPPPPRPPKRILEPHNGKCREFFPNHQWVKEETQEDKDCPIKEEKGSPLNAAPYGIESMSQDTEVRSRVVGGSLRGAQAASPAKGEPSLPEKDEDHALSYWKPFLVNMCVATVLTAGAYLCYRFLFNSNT
The experiment is described as follows: Phosphatase activity assay (DiFMUP substrate), PTP1B. The note with it: compounds binned ≤1 uM or >1 uM. The class given is biochemical. Summed up:
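Continuous fluorogenic readout of DiFMUP dephosphorylation at room temperature, substrate set at Km for each phosphatase (about 45 μM in the PTPN2 assay). The buffer contains 1 mM DTT and 0.001% Tween-20, pH 7.5.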

From patent publication US20240398828A1, “HETERO-ATOM CONTAINING COMPOUNDS AND USES THEREOF” (Kumquat Biosciences Inc., priority 2021, published 2024) come the findings set out here.

What is called IC50 is the midpoint of a concentration-inhibition curve.

Take `O=C1CN(c2c(O)ccc(C3=CCN(CCC(F)F)C3)c2F)S(=O)(=O)N1` [Compound 534, 5-(3-(1-(3,3-difluoropropyl)-2,5-dihydro-1H-pyrrol-3-yl)-2-fluoro-6-hydroxyphenyl)-1,2,5-thiadiazolidin-3-one 1,1-dioxide]: the IC50 in experiment [1] and in experiment [2] was ≤ 1 µM each time.
For the compound `Cc1cnn(-c2ccc(O)c(N3CC(=O)NS3(=O)=O)c2F)c1` [Compound 386, 5-(2-fluoro-6-hydroxy-3-(4-methyl-1H-pyrazol-1-yl)phenyl)-1,2,5-thiadiazolidin-3-one 1,1-dioxide], the IC50 in experiment [1] and in experiment [2] was ≤ 1 µM throughout.
As to `CC(C)CC1C=C(c2ccc(O)c(N3CC(=O)NS3(=O)=O)c2F)CN1` (centres unmarked) [Compound 531, 5-(2-fluoro-6-hydroxy-3-(5-isobutyl-2,5-dihydro-1H-pyrrol-3-yl)phenyl)-1,2,5-thiadiazolidin-3-one 1,1-dioxide], the IC50 in experiment [1] and in experiment [2] was ≤ 1 µM each time.
Take `Nc1nc2c(-c3ccc(O)c(N4CC(=O)NS4(=O)=O)c3F)ccc(F)c2s1` [Compound 151, 5-(3-(2-amino-7-fluorobenzo[d]thiazol-4-yl)-2-fluoro-6-hydroxyphenyl)-1,2,5-thiadiazolidin-3-one 1,1-dioxide]: the values for the IC50 in experiment [1] and in experiment [2] were > 1 µM and ≤ 1 µM, respectively.
For `O=C1CN(c2c(O)ccc(-c3ccc(NC(=O)C4CC4)cc3)c2F)S(=O)(=O)N1` [Compound 395, N-(3′-(1,1-dioxido-4-oxo-1,2,5-thiadiazolidin-2-yl)-2′-fluoro-4′-hydroxy-[1,1′-biphenyl]-4-yl)cyclopropanecarboxamide], in that order: ≤ 1 µM and ≤ 1 µM.
As for `CC(C)CCn1cc(-c2cc(F)c(O)c(N3CC(=O)NS3(=O)=O)c2)cn1` [Compound 153, 5-(3-fluoro-2-hydroxy-5-(1-isopentyl-1H-pyrazol-4-yl)phenyl)-1,2,5-thiadiazolidin-3-one 1,1-dioxide], the IC50 is > 1 µM in experiment [1] and ≤ 1 µM in experiment [2].
For `CN1CC2(CCC(n3cc(-c4ccc(O)c(N5CC(=O)NS5(=O)=O)c4F)cn3)CC2)C1` [Compound 271, 5-(2-fluoro-6-hydroxy-3-(1-(2-methyl-2-azaspiro[3.5]nonan-7-yl)-1H-pyrazol-4-yl)phenyl)-1,2,5-thiadiazolidin-3-one 1,1-dioxide], in that order: ≤ 1 µM and ≤ 1 µM.
For `Cn1cnc(-c2ccc(O)c(N3CC(=O)NS3(=O)=O)c2F)c1` [Compound 115], in that order: ≤ 1 µM and ≤ 1 µM.
For `CC(C)CCn1cnc(-c2ccc(O)c(C3=CC(=O)NS3(=O)=O)c2F)c1` [Compound 391, 5-(2-fluoro-6-hydroxy-3-(1-isopentyl-1H-imidazol-4-yl)phenyl)isothiazol-3(2H)-one 1,1-dioxide], in that order: ≤ 1 µM and ≤ 1 µM.
Take `CC(C)CCc1ncc(-c2ccc(O)c(N3CC(=O)NS3(=O)=O)c2F)[nH]1` [Compound 334, 5-(2-fluoro-6-hydroxy-3-(2-isopentyl-1H-imidazol-5-yl)phenyl)-1,2,5-thiadiazolidin-3-one 1,1-dioxide]: the IC50 in experiment [1] and in experiment [2] was ≤ 1 µM throughout.
For the compound `COC(=O)C1C=C(c2ccc(O)c(N3CC(=O)NS3(=O)=O)c2F)CN1` (centres unmarked) [Compound 399, methyl 4-(3-(1,1-dioxido-4-oxo-1,2,5-thiadiazolidin-2-yl)-2-fluoro-4-hydroxyphenyl)-2,5-dihydro-1H-pyrrole-2-carboxylate], the IC50 in experiment [1] and in experiment [2] was ≤ 1 µM throughout.
On to `CC(C)(C#N)c1cc(-c2ccc(O)c(N3CC(=O)NS3(=O)=O)c2F)[nH]n1` [Compound 368, 2-(5-(3-(1,1-dioxido-4-oxo-1,2,5-thiadiazolidin-2-yl)-2-fluoro-4-hydroxyphenyl)-1H-pyrazol-3-yl)-2-methylpropanenitrile], for which the concentration for half-maximal inhibition (IC50) in experiment [1] and in experiment [2] was ≤ 1 µM throughout.
As to `CC(C)CCn1cc(-c2cc(O)cc(N3CC(=O)NS3(=O)=O)c2F)cn1` [Compound 221, 5-(2-fluoro-5-hydroxy-3-(1-isopentyl-1H-pyrazol-4-yl)phenyl)-1,2,5-thiadiazolidin-3-one 1,1-dioxide], the IC50 in experiment [1] and in experiment [2] was > 1 µM each time.
With `O=C1CN(c2c(O)ccc(-c3cn(-c4ccccc4)cn3)c2F)S(=O)(=O)N1` [Compound 190, 5-(2-fluoro-6-hydroxy-3-(1-phenyl-1H-imidazol-4-yl)phenyl)-1,2,5-thiadiazolidin-3-one 1,1-dioxide], the IC50 in experiment [1] and in experiment [2] was ≤ 1 µM in each case.
Consider `CCC(CC)n1cnc(-c2ccc(O)c(N3CC(=O)NS3(=O)=O)c2F)c1` [Compound 350, 5-(2-fluoro-6-hydroxy-3-(1-(pentan-3-yl)-1H-imidazol-4-yl)phenyl)-1,2,5-thiadiazolidin-3-one 1,1-dioxide], for which the IC50 in experiment [1] and in experiment [2] was ≤ 1 µM each time.
As for `CCn1cc(-c2ccc(O)c(N3CC(=O)NS3(=O)=O)c2F)cn1` [Compound 486, 5-(3-(1-ethyl-1H-pyrazol-4-yl)-2-fluoro-6-hydroxyphenyl)-1,2,5-thiadiazolidin-3-one 1,1-dioxide], the IC50 in experiment [1] and in experiment [2] was ≤ 1 µM throughout.
Regarding `CN1CC2(C1)CN(c1cc(-c3ccc(O)c(N4CC(=O)NS4(=O)=O)c3F)[nH]n1)C2` [Compound 252, 5-(2-fluoro-6-hydroxy-3-(3-(6-methyl-2,6-diazaspiro[3.3]heptan-2-yl)-1H-pyrazol-5-yl)phenyl)-1,2,5-thiadiazolidin-3-one 1,1-dioxide], the IC50 in experiment [1] and in experiment [2] was ≤ 1 µM throughout.
As for `Cn1cc(-c2ccc(O)c(N3CC(=O)NS3(=O)=O)c2F)ccc1=O` [Compound 106, 5-(2-fluoro-6-hydroxy-3-(1-methyl-6-oxo-1,6-dihydropyridin-3-yl)phenyl)-1,2,5-thiadiazolidin-3-one 1,1-dioxide], the half-inhibitory concentration (IC50) in experiment [1] and in experiment [2] was ≤ 1 µM throughout.
Take `O=C1CN(c2c(O)ccc(C3=CCOCC3)c2F)S(=O)(=O)N1` [Compound 405, 5-(3-(3,6-dihydro-2H-pyran-4-yl)-2-fluoro-6-hydroxyphenyl)-1,2,5-thiadiazolidin-3-one 1,1-dioxide]: the IC50 in experiment [1] and in experiment [2] was ≤ 1 µM in each case.
Take `O=C1CN(c2c(O)ccc(C3=CC(COC(F)F)NC3)c2F)S(=O)(=O)N1` (centres unmarked) [Compound 480, 5-(3-(5-((difluoromethoxy)methyl)-2,5-dihydro-1H-pyrrol-3-yl)-2-fluoro-6-hydroxyphenyl)-1,2,5-thiadiazolidin-3-one 1,1-dioxide]: the IC50 in experiment [1] and in experiment [2] was ≤ 1 µM each time.
Regarding `O=C1CN(c2c(O)ccc(C3=CCN(S(=O)(=O)c4ccccc4)C3)c2F)S(=O)(=O)N1` [Compound 404, 5-(2-fluoro-6-hydroxy-3-(1-(phenylsulfonyl)-2,5-dihydro-1H-pyrrol-3-yl)phenyl)-1,2,5-thiadiazolidin-3-one 1,1-dioxide], the IC50 in experiment [1] and in experiment [2] was ≤ 1 µM each time.
In the case of `O=C1CN(c2c(O)ccc(-c3cc(CCC4CCC4)n[nH]3)c2F)S(=O)(=O)N1` [Compound 339, 5-(3-(3-(2-cyclobutylethyl)-1H-pyrazol-5-yl)-2-fluoro-6-hydroxyphenyl)-1,2,5-thiadiazolidin-3-one 1,1-dioxide], the IC50 in experiment [1] and in experiment [2] was ≤ 1 µM in each case.
As to `O=C1CN(c2c(O)ccc(C3=CCN(CC4CC4)C3)c2F)S(=O)(=O)N1` [Compound 496, 5-(3-(1-(cyclopropylmethyl)-2,5-dihydro-1H-pyrrol-3-yl)-2-fluoro-6-hydroxyphenyl)-1,2,5-thiadiazolidin-3-one 1,1-dioxide], the 50% inhibitory concentration (IC50) in experiment [1] and in experiment [2] was ≤ 1 µM in each case.
Take `O=C1CN(c2c(O)ccc(C3=CCN(CC4CCCCC4)C3)c2F)S(=O)(=O)N1` [Compound 267, 5-(3-(1-(cyclohexylmethyl)-2,5-dihydro-1H-pyrrol-3-yl)-2-fluoro-6-hydroxyphenyl)-1,2,5-thiadiazolidin-3-one 1,1-dioxide]: the IC50 in experiment [1] and in experiment [2] was ≤ 1 µM in each case.
Take `O=C1CN(c2c(O)ccc(-c3ccc4cccnc4c3)c2F)S(=O)(=O)N1` [Compound 138, 5-(2-fluoro-6-hydroxy-3-(quinolin-7-yl)phenyl)-1,2,5-thiadiazolidin-3-one 1,1-dioxide]: the IC50 in experiment [1] and in experiment [2] was ≤ 1 µM throughout.
